Measurements from US20030175964A1, “Use of eicosanoids for tissue engineering” (Kantonsspital Basel, priority 2000, published 2003).

Columns and labels:
[1] = tested on: human chondrocytes; experiment: Redifferentiation of expanded human chondrocytes in pellet culture, real-time quantitative PCR of differentiation indexes; assay type: cell-based
Experimental: Human articular cartilage samples were collected from the hip of 3 patients with no history of joint disease, undergoing joint replacement, following femoral neck fracture.
The cartilage samples were harvested aseptically and digested with 0.15% type II collagenase for 22 hours to isolate primary chondrocytes. The cells were washed and resuspended in Dulbecco's modified Eagles medium (DMEM) supplemented with 10% fetal bovine serum, 4′500 mg/l D-Glucose, nonessential amino acids, 1 mM sodium pyruvate, 100 mM HEPES buffer, 100 U/ml penicillin, 100 μg/ml streptomycin, and 0.29 mg/ml L-glutamine (control medium, CTR). Chondrocytes were seeded into tissue culture flasks at approximately 10^4 cells/cm^2 and cultured in a humidified 37° C./5% CO^2 incubator.
After approximately 10 days, when the cells were confluent, first passage cells (P1) were detached using 0.25% trypsin/1 mM EDTA and replated at 5×10^3 cells/cm^2. After one more week, when the cells reached again confluency, second passage (P2) cells were trypsinised and cultured in pellets. Throughout the expansion phase, cells were cultured in control medium, with or without the addition of 5 ng/ml of Fibroblast Growth Factor-2 (FGF-2).
The cells were suspended at 5×10^5 cells/0.5 ml of serum-free medium (SF) consisting of DMEM supplemented with ITS+1 (containing 10 μg/ml insulin, 5.5 μg/ml transferrin, 5 ng/ml selenium, 0.5 mg/ml bovine serum albumin, 4.7 μg/ml linoleic acid), 0.1 mM ascorbic-acid 2-Phosphate, and 1.25 μg/ml human serum albumin. This suspension was centrifuged at less than 8000 rpm for 15 seconds in polypropylene conical tubes to form spherical pellets which were then statically incubated in a humidified 37° C./5% CO^2 incubator for 24 hours. […]
P, alone or in combination with A and/or D and/or H and/or T, was supplemented to the SF medium during 3D culture of the human chondrocyte cell pellets. After two weeks, the differentiation indexes (CII/CI and Agg/Ver) were assessed. […]
Further, for each primary culture, 2 pellets were formed per experimental group and assessed histologically and for quantitative PCR as described below.
Theoretical Basis. Real-time quantitative PCR monitors the degradation of a sequence-specific, dual-labeled fluorescent probe after each cycle of PCR amplification. […] After subtraction of the background fluorescence, calculated during the first 15 amplification cycles, the measured fluorescence is graphed as an amplification plot. […] The Ct value is correlated to input target mRNA amount: a larger starting quantity of mRNA target results in a lower number of PCR cycles required for the reporter fluorescent emission to reach the threshold, and therefore a lower Ct value. […]

[2] = tested on: chondrocytes; details: cited from earlier work
[3] = SF medium supplemented with P, 1 μg/ml, two weeks, vs control culture

## CCCCC[C@H](O)/C=C/[C@H]1[C@H](O)CC(=O)[C@@H]1C/C=C\CCCC(=O)O [P, prostaglandin E2]
[1]; [3]
  Agg/Ver differentiation index, increase compared to the control culture: at least 2 orders of magnitude
  CII/CI differentiation index, increase compared to the control culture: at least 2 orders of magnitude
[1]; chondrocytes expanded with 5 ng/ml FGF-2, compared with those expanded without FGF-2
  effects on differentiation indexes and CI mRNA on chondrocytes expanded with FGF-2: comparable
[1]; pellets, SF medium supplemented with P
  expression of CI (collagen type I) mRNA: decrease

## FGF-2: fibroblast growth factor-2, growth factor added during monolayer expansion of chondrocytes
[2]; chondrocytes expanded in the presence of FGF-2, versus freshly isolated (primary) chondrocytes
  cartilaginous tissue formed after seeding onto three-dimensional polymer scaffolds: histologically and biochemically comparable to that obtain using freshly isolated chondrocytes
[2]; monolayer expansion in the presence of FGF-2
  formation of thick F-actin structures during monolayer expansion: inhibits
